According to patent US11400269B2, “Using alternating electric fields to increase permeability of the blood brain barrier” (Novocure GmbH, priority 2018, dated 2022):

How the values were obtained:
rat brain (BBB) [1] = experiment: Evans Blue accumulation in rat brain after alternating electric fields; format: in vivo
Text: A set of in vivo experiments on rats was also run to quantify the increase in vessel permeability caused by exposure to the alternating electric fields. These experiments used Evans Blue (EB) dye, which is an azo dye that has a very high affinity for serum albumin (molecule size ˜69 kDa). Because of its large molecule size, serum albumin will ordinarily not be able to get past the BBB.
This was accomplished by shaving each rat's head, positioning a first pair of capacitively coupled electrodes on the top and bottom of the rat's head, and positioning a second pair of capacitively coupled electrodes on the left and right sides of the rat's head. A 100 kHz AC voltage was then applied between the top and bottom electrodes for 1 second, followed by a 100 kHz AC voltage applied between the right and left electrodes for 1 second, in a repeating sequence.
Under the conditions indicated in Table 1 and for the times indicated on Table 1, EB was injected intravenously into the tail vein under anesthesia (Once injected, EB immediately binds to Albumin), and the EB was allowed to circulate for 2 hours in all cases. The following steps were then performed: (a) intracardiac perfusion with saline; (b) brains are sliced in four pieces with a brain slicer; (c) pieces were photographed to localize staining and weighted; (d) EB extraction after tissue homogenization with TCA 50% (1:3) and centrifuge and (e) EB quantification at 610 nm. Results are given as μg EB per g tissue.
During the experiment, two animals from group 2 and one animal from group 4 were excluded (disrupted treatment, failure to inject EB into the tail vein). There were no differences between the animals treated with alternating electric fields (groups 1 and 2) and therefore these animals were grouped together. Similarly, there were no differences between sham heat and control animals (groups 3 and 4) and therefore these animals were grouped together.
EB accumulation in these four specific sections was then measured. In addition, a computer simulation was performed to determine the field strength in each of these four sections. […]

rat brain (BBB) [2] = experiment: DCE-MRI contrast agent accumulation in rat brain; format: in vivo
Description: Yet another set of in vivo experiments was performed using Dynamic Contrast Enhanced MRI (DCE-MRI) with intravenous injection of Gadolinium contrast agent (Gd-DTPA, Magnetol, MW 547). In these experiments, test rats were treated with 100 kHz alternating electric fields for 72 h, and control rats were not treated with alternating electric fields for the same period of time. After this 72 h period, the alternating electric field was turned off, the rats were anesthetized, and a series of 60 T1w MRI scans (each of the scans having a duration of 28 seconds) was acquired. The gadolinium contrast agent was injected into the rat's tail vein during the 7th of these 60 scans.
The image analysis for each rat included (1) determining a baseline for each voxel by calculating the mean of the first six T1w MRI scans for each voxel (i.e., the scans prior to the injection of the gadolinium); (2) computing voxel by voxel, the percent signal change (i.e., gadolinium accumulation) over time relative to the baseline; (3) segmenting the brain into anterior, middle, and posterior segments; (4) generating for each of the three segments the mean percent signal change with respect to the baseline over all the voxels in the respective segment and then (5) averaging 4 consecutive time points (i.e. 4 scans) together. Finally, the data from all of the rats within any given group were averaged together. […]

[3] = 100 kHz fields 72 h vs sham heat/control, EB i.v., circulated 2 hours, measured as μg EB per g tissue, FIG. 5

| SMILES | average EB accumulation in the rat brain, averaged over all four sections 1-4 (rat brain (BBB) [1]; 100 kHz fields 72 hours vs sham heat/control, p<0.05, FIG. 6) | EB accumulation, more posterior sections (3, 4) (rat brain (BBB) [1]; [3]) | EB accumulation, sections 1, 2 (frontal cerebrum) (rat brain (BBB) [1]; [3]) | contrast agent accumulation in the brain tissue (percent signal change) (rat brain (BBB) [2]; 100 kHz fields 72 h (n=6) vs control rats (n=3), i.v., FIG. 7) | contrast agent accumulation in the brain tissue (percent signal change) after recovery (rat brain (BBB) [2]; 72 hours fields followed by 96 hours without fields (n=7) vs control+96 h (n=3)) |
| --- | --- | --- | --- | --- | --- |
| Cc1cc(-c2ccc(/N=N/c3ccc4c(S(=O)(=O)O)cc(S(=O)(=O)O)c(N)c4c3O)c(C)c2)ccc1/N=N/c1ccc2c(S(=O)(=O)O)cc(S(=O)(=O)O)c(N)c2c1O [EB, Evans Blue] | higher accumulation | smaller increase (that was not statistically significant) | statistically significant increase | – | – |
| O=C([O-])CN(CCN(CC(=O)[O-])CC(=O)O)CCN(CC(=O)[O-])CC(=O)O.[Gd+3] [contrast agent, Gd-DTPA] | – | – | – | significantly higher | not significantly different |
